Results as given in patent publication US20070014722A1, “Method of treating human volume expansion mediated hypertension employing resibufogenin” (The Administrators of the Tulane Educational Fund, priority 2005, published 2007).
Several values for one entry are separate records, joined by “and”; a condition that tells them apart may be missing. Equal entries are not always repeated. Entries after “also recorded” stand apart in the source; their conditions may differ.

Experiments:
[1] = Biological activity as antiangiogenesis agent
[2] = tested on: Goldblatt 2 kidney, 1 clip model (renin-angiotensin mediated hypertension); assay: Blood pressure in Goldblatt 2 kidney, 1 clip rats (vasoconstrictive hypertension model); type: in vivo, rat; conditions: Group III, two rats; about 1.53 micrograms per 100 grams body weight
Protocol: (§1) In order to confirm the effectiveness of resibufogenin in treating volume expansion mediated hypertension, experiments were performed. Animal models of volume expansion mediated hypertension were created in the laboratory in accordance with guidance provided in “Down-regulation of Phosphorylation of Renal Proximal Brush Border Membrane Protein in DOCA-salt hypertensive rats”. H. Cai et al., J Am Soc Nephrol 5:S26, (1994). These models consisted of the administration of a potent mineralocorticoid desoxycorticosterone (DOCA) to rats whose drinking water had been replaced with 0.9% saline and which had one kidney removed (uninephrectomy) in order to induce volume expansion mediated hypertension. This group of animals is listed as Group I. Group II was the uninephrectomy control group (“time control”). Another group (Group III) utilized the Goldblatt 2 kidney, 1 clip model to induce vasoconstrictive (renin-angiotensin mediated) form of essential hypertension. All of the blood pressures were measured in mm Hg.
In each group, a baseline blood pressure was taken. This is shown in the first column. Subsequently, 10 days to 2 weeks prior to the introduction of resibufogenin, the blood pressure was measured. This appears in the second column. In the third column, the blood pressure was measured 10 days after administration of resibufogenin. […]

[3] = tested on: DOCA-salt uninephrectomized rats (volume expansion mediated hypertension); assay: Blood pressure in DOCA-salt uninephrectomized rats (volume expansion mediated hypertension model); type: in vivo, rat
Protocol: as §1
In each group, a baseline blood pressure was taken. This is shown in the first column. Subsequently, 10 days to 2 weeks prior to the introduction of resibufogenin, the blood pressure was measured. This appears in the second column. In the third column, the blood pressure was measured 10 days after administration of resibufogenin. The rats in Groups I and III weighed about 200 to 250 gm with resibufogenin being administered in the amount of about 1.53 micrograms per 100 grams of body weight. […] It is also noted that in the Group II control, that there was no meaningful pattern of reduction in blood pressure.
A dosage of approximately 1.53 micrograms […] with the rats weighing in the range of about 200-250 g was employed daily in order to determine the effectiveness of resibufogenin in the treatment of volume expansion mediated hypertension. The dosage was administered intraperitonially and the rats monitored after about three to four days of treatment. […]
The dosage was administered intraperitonially and the rats monitored after about three to four days of treatment. […]

C[C@]12CC[C@H](O)C[C@H]1CC[C@@H]1[C@@H]2CC[C@]2(C)[C@@H](c3ccc(=O)oc3)C[C@H]3O[C@]132 [Resibufogenin, resibufogenin]
Biological activity as an antiangionesis agent [1]: not to be biologically active
Blood pressure response to resibufogenin (in words) [2]: neither animal responded to resibufogenin
Reduction in blood pressure (in words) ([3]; Group I, four rats, 10 days after administration of resibufogenin): very substantial reduction in blood pressure; also recorded: meaningful reduction in blood pressure
Blood Pressure After 10 days of Resibufogenin ([3]; Group I, individual rats #1-#4, about 1.53 micrograms per 100 grams body weight daily, intraperitoneal, in DMSO, after 10 days): 85 mmHg and 90 mmHg and 130 mmHg and 100 mmHg
Reduction in blood pressure after treatment (in words) ([3]; daily intraperitoneal dose, rats monitored after about three to four days of treatment): all of the rats experienced a substantial reduction in blood pressure
